Source: the kinase profiling compilation of Christmann-Franck et al. (2016)

Tests used:
Assay in all cases: KINOMEscan competition binding
Conditions in all cases: compound 10.0 µM
[1] = target: ERBB4 (human) (UniProt Q15303)
[2] = target: BRAF (human) (UniProt P15056)
[3] = target: DCLK1 (human) (UniProt O15075)
[4] = target: NEK2 (human) (UniProt P51955)
[5] = target: NEK7 (human) (UniProt Q8TDX7)
[6] = target: RAF1 (human) (UniProt P04049)
[7] = target: PLK2 (human) (UniProt Q9NYY3)
[8] = tested on: PIK3CA (human), P42336 [H1047Y]
[9] = target: MAPK10 (human) (UniProt P53779)
[10] = tested on: ABL1 (human), P00519 [Q252H]
[11] = tested on: ABL1 (human), P00519 [E255K]
[12] = target: CLK4 (human) (UniProt Q9HAZ1)
[13] = target: MAP4K1 (human) (UniProt Q92918)
[14] = target: ALK (human) (UniProt Q9UM73)
Chain of ALK (human) (Q9UM73 whole entry, looked up): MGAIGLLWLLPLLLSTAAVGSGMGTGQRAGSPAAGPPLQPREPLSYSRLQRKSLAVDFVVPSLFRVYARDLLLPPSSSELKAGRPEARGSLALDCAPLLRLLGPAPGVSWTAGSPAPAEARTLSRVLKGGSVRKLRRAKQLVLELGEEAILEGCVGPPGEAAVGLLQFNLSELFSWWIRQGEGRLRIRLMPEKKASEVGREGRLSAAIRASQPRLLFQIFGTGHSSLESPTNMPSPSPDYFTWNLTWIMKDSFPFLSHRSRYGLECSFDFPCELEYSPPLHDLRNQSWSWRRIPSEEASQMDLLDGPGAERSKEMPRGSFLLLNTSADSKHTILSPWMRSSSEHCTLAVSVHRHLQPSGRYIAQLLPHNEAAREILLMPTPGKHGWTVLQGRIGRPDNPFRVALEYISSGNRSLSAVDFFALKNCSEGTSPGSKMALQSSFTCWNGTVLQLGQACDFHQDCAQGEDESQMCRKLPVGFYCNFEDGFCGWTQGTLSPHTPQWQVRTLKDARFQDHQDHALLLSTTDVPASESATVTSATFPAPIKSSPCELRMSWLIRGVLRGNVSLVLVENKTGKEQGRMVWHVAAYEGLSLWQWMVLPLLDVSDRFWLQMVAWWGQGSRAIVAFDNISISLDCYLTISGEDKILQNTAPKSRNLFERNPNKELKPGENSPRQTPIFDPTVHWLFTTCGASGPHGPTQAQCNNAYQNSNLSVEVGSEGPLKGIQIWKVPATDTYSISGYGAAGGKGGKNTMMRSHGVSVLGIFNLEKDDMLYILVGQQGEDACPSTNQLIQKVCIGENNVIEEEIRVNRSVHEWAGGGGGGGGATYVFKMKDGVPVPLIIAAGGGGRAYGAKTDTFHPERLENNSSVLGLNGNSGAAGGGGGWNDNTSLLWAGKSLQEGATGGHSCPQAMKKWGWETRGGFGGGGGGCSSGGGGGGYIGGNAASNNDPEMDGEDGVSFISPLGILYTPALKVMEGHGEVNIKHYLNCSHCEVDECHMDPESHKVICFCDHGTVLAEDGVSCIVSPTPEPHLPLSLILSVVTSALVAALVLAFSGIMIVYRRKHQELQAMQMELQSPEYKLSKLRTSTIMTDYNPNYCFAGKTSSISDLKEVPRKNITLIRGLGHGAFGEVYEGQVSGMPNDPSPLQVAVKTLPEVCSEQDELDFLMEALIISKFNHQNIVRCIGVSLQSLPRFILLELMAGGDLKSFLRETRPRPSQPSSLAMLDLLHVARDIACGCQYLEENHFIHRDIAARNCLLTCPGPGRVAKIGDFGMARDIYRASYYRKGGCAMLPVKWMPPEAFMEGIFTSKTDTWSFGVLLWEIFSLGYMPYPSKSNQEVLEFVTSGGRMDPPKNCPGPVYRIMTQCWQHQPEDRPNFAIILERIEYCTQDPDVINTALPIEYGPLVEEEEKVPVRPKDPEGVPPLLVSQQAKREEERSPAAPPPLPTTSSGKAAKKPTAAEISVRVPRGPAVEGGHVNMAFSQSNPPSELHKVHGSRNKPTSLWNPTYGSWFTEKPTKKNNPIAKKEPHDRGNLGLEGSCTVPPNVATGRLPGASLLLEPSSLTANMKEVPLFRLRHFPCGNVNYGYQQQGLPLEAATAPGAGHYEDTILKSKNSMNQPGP

[15] = target: CHEK1 (human) (UniProt O14757)
[16] = target: MAP3K4 (human) (UniProt Q9Y6R4)
[17] = target: SLK (human) (UniProt Q9H2G2)
[18] = target: MAP2K1 (human) (UniProt Q02750)
[19] = target: ZAP70 (human) (UniProt P43403)
[20] = target: RPS6KA1 KD1 (human) (UniProt Q15418)
[21] = target: STK35 (human) (UniProt Q8TDR2)
[22] = target: MAPK12 (human) (UniProt P53778)
[23] = target: MAPK4 (human) (UniProt P31152)
[24] = tested on: PIK3CA (human), P42336 [H1047L]
[25] = target: CHUK (human) (UniProt O15111)
[26] = target: JAK3 JH1 catalytic (human) (UniProt P52333)
[27] = target: MAP3K7 (human) (UniProt O43318)
[28] = target: ADCK3 (human) (UniProt Q8NI60)
Chain of ADCK3 (human) (Q8NI60 whole entry, looked up): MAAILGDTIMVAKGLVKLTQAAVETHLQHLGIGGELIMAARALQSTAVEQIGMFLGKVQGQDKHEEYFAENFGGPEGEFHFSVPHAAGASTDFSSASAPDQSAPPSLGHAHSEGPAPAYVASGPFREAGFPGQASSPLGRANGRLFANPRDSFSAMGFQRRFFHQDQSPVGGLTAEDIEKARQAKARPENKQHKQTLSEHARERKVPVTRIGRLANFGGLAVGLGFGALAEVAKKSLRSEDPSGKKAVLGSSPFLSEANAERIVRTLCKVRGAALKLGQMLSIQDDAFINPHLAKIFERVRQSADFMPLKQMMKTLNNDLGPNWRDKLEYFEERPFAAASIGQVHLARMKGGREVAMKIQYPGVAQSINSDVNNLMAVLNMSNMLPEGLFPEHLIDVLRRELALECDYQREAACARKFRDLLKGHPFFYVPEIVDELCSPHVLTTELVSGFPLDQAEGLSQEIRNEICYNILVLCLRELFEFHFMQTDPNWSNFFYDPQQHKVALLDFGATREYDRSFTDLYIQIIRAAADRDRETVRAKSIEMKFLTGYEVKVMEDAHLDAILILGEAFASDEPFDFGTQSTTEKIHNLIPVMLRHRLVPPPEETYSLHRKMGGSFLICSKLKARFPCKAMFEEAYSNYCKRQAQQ

[29] = target: NEK9 (human) (UniProt Q8TD19)
[30] = target: AURKA (human) (UniProt O14965)
[31] = target: MAP3K15 (human) (UniProt Q6ZN16)
[32] = target: SBK1 (human) (UniProt Q52WX2)
[33] = target: ADCK4 (human) (UniProt Q96D53)
Chain of ADCK4 (human) (Q96D53 whole entry, looked up): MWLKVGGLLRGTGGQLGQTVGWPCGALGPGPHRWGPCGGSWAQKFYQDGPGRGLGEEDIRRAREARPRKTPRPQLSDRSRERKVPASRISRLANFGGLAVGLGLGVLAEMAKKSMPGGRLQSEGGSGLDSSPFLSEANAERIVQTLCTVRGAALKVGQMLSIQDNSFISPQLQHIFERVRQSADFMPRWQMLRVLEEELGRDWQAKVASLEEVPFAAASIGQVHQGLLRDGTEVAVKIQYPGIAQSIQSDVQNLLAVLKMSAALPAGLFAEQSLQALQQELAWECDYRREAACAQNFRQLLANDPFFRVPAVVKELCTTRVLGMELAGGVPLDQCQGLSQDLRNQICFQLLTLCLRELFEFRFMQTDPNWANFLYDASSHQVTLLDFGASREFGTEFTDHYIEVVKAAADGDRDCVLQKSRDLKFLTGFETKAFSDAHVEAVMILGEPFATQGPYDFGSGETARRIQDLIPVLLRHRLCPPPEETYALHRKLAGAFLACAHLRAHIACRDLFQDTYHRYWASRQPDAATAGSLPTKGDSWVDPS

[34] = target: DYRK2 (human) (UniProt Q92630)
[35] = target: INSRR (human) (UniProt P14616)
[36] = target: RET (human) (UniProt P07949)
[37] = target: SRPK1 (human) (UniProt Q96SB4)
[38] = target: HIPK3 (human) (UniProt Q9H422)
[39] = target: MAPKAPK5 (human) (UniProt Q8IW41)
[40] = target: EIF2AK2 (human) (UniProt P19525)
[41] = target: PKN2 (human) (UniProt Q16513)

Chain of PLK2 (human) (Q9NYY3 whole entry, looked up): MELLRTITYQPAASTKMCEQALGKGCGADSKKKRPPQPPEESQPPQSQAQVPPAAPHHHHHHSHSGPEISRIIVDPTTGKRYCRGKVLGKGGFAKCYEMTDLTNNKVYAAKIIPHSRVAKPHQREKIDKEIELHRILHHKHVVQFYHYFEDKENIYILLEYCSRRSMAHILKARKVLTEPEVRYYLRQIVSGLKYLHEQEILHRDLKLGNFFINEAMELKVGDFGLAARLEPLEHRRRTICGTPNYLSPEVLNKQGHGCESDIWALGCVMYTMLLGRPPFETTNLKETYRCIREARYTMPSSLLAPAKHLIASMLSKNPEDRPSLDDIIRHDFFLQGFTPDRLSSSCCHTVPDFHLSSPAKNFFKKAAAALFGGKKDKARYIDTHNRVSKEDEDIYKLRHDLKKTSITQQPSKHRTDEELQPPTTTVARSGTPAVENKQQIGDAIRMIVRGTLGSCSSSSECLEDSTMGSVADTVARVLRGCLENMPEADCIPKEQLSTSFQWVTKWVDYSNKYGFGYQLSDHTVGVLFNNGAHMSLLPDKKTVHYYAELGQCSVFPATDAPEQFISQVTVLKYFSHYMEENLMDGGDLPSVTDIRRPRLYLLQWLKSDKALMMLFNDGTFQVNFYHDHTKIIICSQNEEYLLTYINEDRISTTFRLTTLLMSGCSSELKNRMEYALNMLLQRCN
Chain of RAF1 (human) (P04049 whole entry, looked up): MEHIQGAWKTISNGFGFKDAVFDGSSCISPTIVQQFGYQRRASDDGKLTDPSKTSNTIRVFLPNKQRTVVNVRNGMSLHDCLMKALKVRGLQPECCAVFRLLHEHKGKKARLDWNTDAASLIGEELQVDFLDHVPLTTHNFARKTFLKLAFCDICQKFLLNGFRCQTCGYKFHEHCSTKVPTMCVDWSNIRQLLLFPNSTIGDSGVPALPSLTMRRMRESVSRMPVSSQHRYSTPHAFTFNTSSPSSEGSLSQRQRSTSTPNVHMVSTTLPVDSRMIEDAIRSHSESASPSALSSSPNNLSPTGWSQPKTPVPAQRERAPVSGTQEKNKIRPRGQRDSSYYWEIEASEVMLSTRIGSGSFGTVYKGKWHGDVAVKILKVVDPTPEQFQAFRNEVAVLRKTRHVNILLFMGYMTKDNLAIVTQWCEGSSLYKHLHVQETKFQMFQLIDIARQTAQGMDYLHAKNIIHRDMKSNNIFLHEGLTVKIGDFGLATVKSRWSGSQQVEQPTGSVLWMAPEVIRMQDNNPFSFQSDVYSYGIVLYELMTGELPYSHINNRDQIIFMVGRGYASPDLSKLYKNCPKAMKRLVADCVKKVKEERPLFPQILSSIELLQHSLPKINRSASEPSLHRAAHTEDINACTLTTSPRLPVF
Chain of DCLK1 (human) (O15075 whole entry, looked up): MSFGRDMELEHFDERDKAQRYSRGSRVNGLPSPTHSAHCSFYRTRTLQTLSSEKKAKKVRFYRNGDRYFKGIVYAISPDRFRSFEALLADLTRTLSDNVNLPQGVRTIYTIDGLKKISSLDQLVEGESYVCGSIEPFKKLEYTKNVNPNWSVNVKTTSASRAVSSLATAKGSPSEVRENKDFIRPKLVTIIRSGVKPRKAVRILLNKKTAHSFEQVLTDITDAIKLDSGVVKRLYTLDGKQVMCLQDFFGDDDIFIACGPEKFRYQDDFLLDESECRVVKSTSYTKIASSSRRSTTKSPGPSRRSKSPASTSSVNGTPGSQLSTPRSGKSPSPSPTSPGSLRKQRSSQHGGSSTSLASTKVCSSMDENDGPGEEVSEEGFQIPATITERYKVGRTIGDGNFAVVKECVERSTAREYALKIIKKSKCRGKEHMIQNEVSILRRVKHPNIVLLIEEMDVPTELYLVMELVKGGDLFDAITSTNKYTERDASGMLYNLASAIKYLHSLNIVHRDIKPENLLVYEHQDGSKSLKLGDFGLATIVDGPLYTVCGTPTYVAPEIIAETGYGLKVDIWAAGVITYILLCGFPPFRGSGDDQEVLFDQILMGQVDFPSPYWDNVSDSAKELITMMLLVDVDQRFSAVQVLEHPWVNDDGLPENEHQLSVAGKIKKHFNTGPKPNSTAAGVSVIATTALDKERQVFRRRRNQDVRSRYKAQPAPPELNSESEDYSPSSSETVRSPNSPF

kinase still bound, per cent of control [1] [%] | kinase still bound, per cent of control [2] [%] | kinase still bound, per cent of control [3] [%] | kinase still bound, per cent of control [4] [%] | kinase still bound, per cent of control [5] [%] | kinase still bound, per cent of control [6] [%] | kinase still bound, per cent of control [7] [%] | kinase still bound, per cent of control [8] [%] | kinase still bound, per cent of control [9] [%] | kinase still bound, per cent of control [10] [%] | kinase still bound, per cent of control [11] [%] | kinase still bound, per cent of control [12] [%] | kinase still bound, per cent of control [13] [%] | kinase still bound, per cent of control [14] [%] | kinase still bound, per cent of control [15] [%] | kinase still bound, per cent of control [16] [%] | kinase still bound, per cent of control [17] [%] | kinase still bound, per cent of control [18] [%] | kinase still bound, per cent of control [19] [%] | kinase still bound, per cent of control [20] [%] | Compound | further results
100 | 50 | 100 | 72 | 98 | 100 | 79 | 69 | 64 | 100 | 100 | 62 | 100 | 100 | 100 | 100 | 63 | 100 | 100 | 100 | Cc1cnc(-c2cnc(NCCNc3ccc(C#N)cn3)nc2-c2ccc(Cl)cc2Cl)[nH]1 | kinase still bound, per cent of control [21]: 100%; kinase still bound, per cent of control [22]: 100%; kinase still bound, per cent of control [23]: 100%; kinase still bound, per cent of control [24]: 100%; kinase still bound, per cent of control [25]: 100%; kinase still bound, per cent of control [26]: 100%; kinase still bound, per cent of control [27]: 51%; kinase still bound, per cent of control [28]: 100%; kinase still bound, per cent of control [29]: 100%; kinase still bound, per cent of control [30]: 100%; kinase still bound, per cent of control [31]: 100%; kinase still bound, per cent of control [32]: 100%; kinase still bound, per cent of control [33]: 100%; kinase still bound, per cent of control [34]: 68%; kinase still bound, per cent of control [35]: 100%; kinase still bound, per cent of control [36]: 100%; kinase still bound, per cent of control [37]: 100%; kinase still bound, per cent of control [38]: 100%; kinase still bound, per cent of control [39]: 96%; kinase still bound, per cent of control [40]: 50%
100 | 57 | 100 | 90 | 100 | 63 | 100 | 100 | 53 | 100 | 100 | 87 | 98 | 100 | 100 | 100 | 100 | 100 | 100 | 100 | COc1ccc(CNC(=O)Nc2ncc([N+](=O)[O-])s2)cc1 | kinase still bound, per cent of control [41]: 78%; kinase still bound, per cent of control [21]: 87%; kinase still bound, per cent of control [23]: 100%; kinase still bound, per cent of control [24]: 100%; kinase still bound, per cent of control [25]: 100%; kinase still bound, per cent of control [26]: 100%; kinase still bound, per cent of control [27]: 88%; kinase still bound, per cent of control [28]: 100%; kinase still bound, per cent of control [29]: 100%; kinase still bound, per cent of control [30]: 84%; kinase still bound, per cent of control [31]: 100%; kinase still bound, per cent of control [32]: 100%; kinase still bound, per cent of control [33]: 100%; kinase still bound, per cent of control [34]: 68%; kinase still bound, per cent of control [35]: 93%; kinase still bound, per cent of control [36]: 100%; kinase still bound, per cent of control [37]: 100%; kinase still bound, per cent of control [38]: 100%; kinase still bound, per cent of control [39]: 100%; kinase still bound, per cent of control [40]: 76%
46 | 89 | 99 | 82 | 100 | 90 | 87 | 100 | 12 | 3.8 | 11 | 99 | 18 | 44 | 32 | 85 | 44 | 37 | 90 | 3.1 | O=C1Nc2cc(Br)ccc2/C1=C1/Nc2ccccc2/C1=N\O | kinase still bound, per cent of control [41]: 29%; kinase still bound, per cent of control [21]: 60%; kinase still bound, per cent of control [22]: 55%; kinase still bound, per cent of control [23]: 100%; kinase still bound, per cent of control [24]: 100%; kinase still bound, per cent of control [25]: 83%; kinase still bound, per cent of control [26]: 6.3%; kinase still bound, per cent of control [27]: 20%; kinase still bound, per cent of control [28]: 80%; kinase still bound, per cent of control [29]: 98%; kinase still bound, per cent of control [30]: 20%; kinase still bound, per cent of control [31]: 43%; kinase still bound, per cent of control [32]: 61%; kinase still bound, per cent of control [33]: 57%; kinase still bound, per cent of control [35]: 47%; kinase still bound, per cent of control [36]: 0%; kinase still bound, per cent of control [37]: 5%; kinase still bound, per cent of control [38]: 12%; kinase still bound, per cent of control [39]: 100%; kinase still bound, per cent of control [40]: 33%
